Measured values from patent publication US20230158005A1 (priority 2020, published 2023).
Where “and” joins values, the source holds several entries; their conditions need not be identical. Equal values may be shown once.

Experiments:
[1] = tested on: A/Minnesota/19/2011 (H1N1); type: cell-based, influenza A virus
A/Fujian/413/2002 (H3N2) = type: cell-based, influenza A virus
A/Indiana/08/2011 (H3N2) = type: cell-based, influenza A virus
[2] = tested on: A/California/02/2014 (H3N2); type: cell-based, influenza A virus; on Virus titer, replicates 1-3: test concentration or dose not given here
[3] = tested on: A/Indonesia/05/2005 (H5N1); type: cell-based, influenza A virus; on Virus titer, replicates 1-3: test concentration or dose not given here
A/Texas/71/2007 (H3N2) = type: cell-based, influenza A virus
[4] = tested on: A/California/07/2009 (H1N1); type: cell-based, influenza A virus
[5] = tested on: A549 human lung carcinoma cells
[6] = tested on: A/Hong Kong/156/1997 (H5N1); type: cell-based, influenza A virus
A/Alaska/140/2015 (H3N2) = type: cell-based, influenza A virus; on Virus titer, replicates 1-3: test concentration or dose not given here
[7] = tested on: A/New Jersey/8/1976 (H1N1); type: cell-based, influenza A virus
A/Perth/16/2009 (H3N2) = type: cell-based, influenza A virus
[8] = tested on: A/Vietnam/1203/2004 (H5N1); type: cell-based, influenza A virus
A/USSR/90/1977 (H1N1) = type: cell-based, influenza A virus
A/Anhui/1/2013 (H7N9) = type: cell-based, influenza A virus
[9] = tested on: A/Solomon Islands/03/2006 (H1N1); type: cell-based, influenza A virus
[10] = tested on: A/Puerto Rico/8/1934 (H1N1); type: cell-based, influenza A virus
A/Hawaii/15/2001 (H1N1) = type: cell-based, influenza A virus; on Virus titer, replicates 1-3: test concentration or dose not given here
[11] = tested on: A/Egypt/N6658/2011 (H5N1); type: cell-based, influenza A virus
[12] = tested on: A/New Caledonia/20/1999 (H1N1); type: cell-based, influenza A virus

CCOC(=O)C1=C[C@@H](OC(CC)CC)[C@H](NC(C)=O)[C@@H](N)C1 [Oseltamivir, oseltamivir, reference compound]
DIF (Difference from Control) [1]: -7.33 log10TCID50/mL | Virus titer AVG [1]: 1.50 log10TCID50/mL | Virus titer, replicates 1-3 [1]: 1.50 log10TCID50/mL | DIF (Difference from Control) (A/Fujian/413/2002 (H3N2)): -0.58 log10TCID50/mL | Virus titer AVG (A/Fujian/413/2002 (H3N2)): 2.75 log10TCID50/mL | Virus titer, replicates 1-3 (A/Fujian/413/2002 (H3N2)): 3.25 log10TCID50/mL and 2.50 log10TCID50/mL (2×) | DIF (Difference from Control) (A/Indiana/08/2011 (H3N2)): -5.08 log10TCID50/mL | Virus titer AVG (A/Indiana/08/2011 (H3N2)): 3.25 log10TCID50/mL | Virus titer, replicates 1-3 (A/Indiana/08/2011 (H3N2)): 2.75 log10TCID50/mL and 3.75 log10TCID50/mL and 3.25 log10TCID50/mL | DIF (Difference from Control) [2]: -1.58 log10TCID50/mL | Virus titer AVG [2]: 4.92 log10TCID50/mL | Virus titer, replicates 1-3 [2]: 5.25 log10TCID50/mL and 4.75 log10TCID50/mL (2×) | DIF (Difference from Control) [3]: -3.50 log10TCID50/mL | Virus titer AVG [3]: 4.58 log10TCID50/mL | Virus titer, replicates 1-3 [3]: 4.75 log10TCID50/mL and 4.50 log10TCID50/mL (2×) | DIF (Difference from Control) (A/Texas/71/2007 (H3N2)): -0.83 log10TCID50/mL | Virus titer AVG (A/Texas/71/2007 (H3N2)): 4.00 log10TCID50/mL | Virus titer, replicates 1-3 (A/Texas/71/2007 (H3N2)): 3.50 log10TCID50/mL and 4.75 log10TCID50/mL and 3.75 log10TCID50/mL | DIF (Difference from Control) [4]: -3.00 log10TCID50/mL | Virus titer AVG [4]: 2.58 log10TCID50/mL | Virus titer, replicates 1-3 [4]: 2.75 log10TCID50/mL and 2.50 log10TCID50/mL (2×) | % Dif (absorbance as percent relative to the vehicle control, relative viability) [5]: 83.88% | DIF (Difference from Control) [6]: -3.08 log10TCID50/mL | Virus titer AVG [6]: 1.50 log10TCID50/mL | Virus titer, replicates 1-3 [6]: 1.50 log10TCID50/mL | DIF (Difference from Control) (A/Alaska/140/2015 (H3N2)): -3.83 log10TCID50/mL | Virus titer AVG (A/Alaska/140/2015 (H3N2)): 2.92 log10TCID50/mL | Virus titer, replicates 1-3 (A/Alaska/140/2015 (H3N2)): 2.50 log10TCID50/mL (2×) and 3.75 log10TCID50/mL | DIF (Difference from Control) [7]: -3.58 log10TCID50/mL | Virus titer AVG [7]: 1.50 log10TCID50/mL | Virus titer, replicates 1-3 [7]: 1.50 log10TCID50/mL | DIF (Difference from Control) (A/Perth/16/2009 (H3N2)): 0.00 log10TCID50/mL | Virus titer AVG (A/Perth/16/2009 (H3N2)): 4.25 log10TCID50/mL | Virus titer, replicates 1-3 (A/Perth/16/2009 (H3N2)): 4.25 log10TCID50/mL | DIF (Difference from Control) [8]: -2.75 log10TCID50/mL | Virus titer AVG [8]: 5.17 log10TCID50/mL | Virus titer, replicates 1-3 [8]: 5.25 log10TCID50/mL and 5.50 log10TCID50/mL and 4.75 log10TCID50/mL | DIF (Difference from Control) (A/USSR/90/1977 (H1N1)): -4.33 log10TCID50/mL | Virus titer AVG (A/USSR/90/1977 (H1N1)): 2.42 log10TCID50/mL | Virus titer, replicates 1-3 (A/USSR/90/1977 (H1N1)): 2.50 log10TCID50/mL (2×) and 2.25 log10TCID50/mL | DIF (Difference from Control) (A/Anhui/1/2013 (H7N9)): -2.25 log10TCID50/mL | Virus titer AVG (A/Anhui/1/2013 (H7N9)): 1.50 log10TCID50/mL | Virus titer, replicates 1-3 (A/Anhui/1/2013 (H7N9)): 1.50 log10TCID50/mL | DIF (Difference from Control) [9]: -4.25 log10TCID50/mL | Virus titer AVG [9]: 3.25 log10TCID50/mL | Virus titer, replicates 1-3 [9]: 3.75 log10TCID50/mL and 3.25 log10TCID50/mL and 2.75 log10TCID50/mL | DIF (Difference from Control) [10]: -2.25 log10TCID50/mL | Virus titer AVG [10]: 3.25 log10TCID50/mL | Virus titer, replicates 1-3 [10]: 3.75 log10TCID50/mL and 3.25 log10TCID50/mL and 2.75 log10TCID50/mL | DIF (Difference from Control) (A/Hawaii/15/2001 (H1N1)): -1.92 log10TCID50/mL | Virus titer AVG (A/Hawaii/15/2001 (H1N1)): 2.67 log10TCID50/mL | Virus titer, replicates 1-3 (A/Hawaii/15/2001 (H1N1)): 2.75 log10TCID50/mL (2×) and 2.50 log10TCID50/mL | DIF (Difference from Control) [11]: -3.25 log10TCID50/mL | Virus titer AVG [11]: 2.08 log10TCID50/mL | Virus titer, replicates 1-3 [11]: 2.25 log10TCID50/mL and 1.50 log10TCID50/mL and 2.50 log10TCID50/mL | DIF (Difference from Control) [12]: -5.67 log10TCID50/mL | Virus titer AVG [12]: 1.50 log10TCID50/mL | Virus titer, replicates 1-3 [12]: 1.50 log10TCID50/mL
